20 molecules from patent publication US20250179059A1 (The Regents of the University of California, priority 2021, published 2025) can be followed below.

SMILES strings stand for the structures. pIC50: −log10 of the molar value. Like-named read-outs stand apart in the source and are kept apart here. Some results are limits rather than exact numbers.

Experiment [1] deals with T1, human BRD4 bromodomain II (Homo sapiens, UniProt O60885).
T1 construct: human BRD4 bromodomain II [based on Genbank NM_058243, residues 349-460]; host or cells: E. coli
The experiment in a line: Bromodomain binding assay (AlphaScreen), BRD4 BDII. The method, boiled down: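 First, His6-tagged BRD4 bromodomain (BDI residues 44-170 or BDII residues 349-460) is incubated with compound for 30 min at room temperature. Next the biotinylated H4 peptide is added for 30 min, then donor and acceptor beads, with 60 min in the dark before AlphaScreen reading and IC50 fitting.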
(In Alpha technology, singlet oxygen from a donor bead excites a nearby acceptor bead.)

Experiment [2] deals with human SKM-1 acute myeloid leukemia cells. In words: SKM-1 antiproliferation cell-based assay (ATPlite). The conditions noted are these: Homo sapiens. In a few lines: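 Log-phase cells in RPMI 1640/15% FBS were seeded at 34722 cells/mL and exposed for 4 days to nine-concentration DMSO serial dilutions in triplicate. Viability was read as ATP luminescence (ATPlite 1step), and IC50 values came from variable-slope non-linear regression.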

Setting [3] is: AlphaScreen assay, Table C2, read-out: BRD4 BDII IC50.
The mark [4] stands for this setting: SKM-1, 96 h, SKM-1 antiproliferation assay, 4 days, Table C2.
Where [5] appears, read: BRD4 BDII AlphaScreen assay, read-out: BRD4 BD2 IC50.
Setting [6] is: SKM-1, SKM-1 antiproliferation assay.

For orientation: pIC50 means the IC50 on a negative log10 scale, so that one unit is a factor of ten. In general, GI50 refers to the concentration giving 50% growth inhibition. Read a high GI50 as lower sensitivity of the cells. On to `CC(C)N1CCN(c2cc(-c3cc(F)cc(-c4ccc(-n5ccn(C)c5=O)c(Cl)c4)c3O)cnc2C(F)F)CC1` [Example 831, 1-(3-chloro-3′-(6-(difluoromethyl)-5-(4-isopropylpiperazin-1-yl)pyridin-3-yl)-5′-fluoro-2′-hydroxy-[1,1′-biphenyl]-4-yl)-3-methyl-1H-imidazol-2(3H)-one], for which the negative-log IC50 (pIC50) in experiment [1] (setting [3]) was 8.00 to 9.00. The molecule also gave a GI50 in experiment [2] (setting [4]) of 0.3 to 30 nM.

In the case of `Cn1ccn(-c2ccc(-c3cc(F)cc(-c4ccnc(N5CC[C@H](N)C5)c4)c3N)cc2Cl)c1=O` [Example 541, (S)-1-(2′-amino-3′-(2-(3-aminopyrrolidin-1-yl)pyridin-4-yl)-3-chloro-5′-fluoro-[1,1′-biphenyl]-4-yl)-3-methyl-1H-imidazol-2(3H)-one], the pIC50 in experiment [1] (setting [3]) was 8.00 to 9.00. In experiment [2] (setting [4]), this molecule registered a GI50 of 30 to 300 nM.

In the case of `COC(=O)c1cc(-c2cccc(-c3ccc(NC(C)=O)c(F)c3)c2O)cc(N2CCNCC2)n1` [Example 260, Methyl 4-(4′-acetamido-3′-fluoro-2-hydroxy-[1,1′-biphenyl]-3-yl)-6-(piperazin-1-yl)picolinate], the pIC50 in experiment [1] (setting [3]) was under 7.00. The molecule further gave a concentration for 50% growth inhibition (GI50) in experiment [2] (setting [4]) of at least 3000 nM.

As to `Cc1cc(-c2cc(F)cc(-c3cccc(N4CCN(C(C)(C)C)CC4)c3)c2O)cc(Cl)c1-n1ccn(C)c1=O` [Example 927, 1-(3″-(4-(tert-butyl)piperazin-1-yl)-3-chloro-5′-fluoro-2′-hydroxy-5-methyl-[1,1′:3′,1″-terphenyl]-4-yl)-3-methyl-1H-imidazol-2(3H)-one], the pIC50 in experiment [1] (setting [5]) is 7.00 to 8.00. The molecule also came in with a GI50 in experiment [2] (setting [6]) of 30 to 300 nM.

Take `Cn1ccn(-c2ccc(-c3cc(F)cc(-c4ccnc(N5CCN6C(=O)OCCC6C5)c4)c3O)cc2Cl)c1=O` (stereo not shown) [Example 675, 2-(4-(3′-chloro-5-fluoro-2-hydroxy-4′-(3-methyl-2-oxo-2,3-dihydro-1H-imidazol-1-yl)-[1,1′-biphenyl]-3-yl)pyridin-2-yl)hexahydropyrazino[1,2-c][1,3]oxazin-6(2H)-one]: in experiment [1] (setting [3]), the pIC50 was 9.00 to 11.00. The concentration for 50% growth inhibition (GI50) in experiment [2] (setting [4]) lay within 30 to 300 nM.

Consider `CC(=O)NCc1ncc(-c2cc(F)cc(-c3ccc(N4CCN(C)C4=O)c(Cl)c3)c2O)cc1N1CCNCC1` [Example 370, N-((5-(3′-chloro-5-fluoro-2-hydroxy-4′-(3-methyl-2-oxoimidazolidin-1-yl)-[1,1′-biphenyl]-3-yl)-3-(piperazin-1-yl)pyridin-2-yl)methyl)acetamide], for which the negative logarithm of the IC50 (pIC50) in experiment [1] (setting [3]) is 8.00 to 9.00. Moreover, in experiment [2] (setting [4]), the 50% growth inhibitory concentration (GI50) fell in the range of 30 to 300 nM.

On to `C[C@@H]1CN(c2cc(-c3cc(F)cc(-c4ccc(-n5ccn(C)c5=O)c(Cl)c4)c3O)cc3c2ccn3C)CCN1` [Example 579, (R)-1-(3-chloro-5′-fluoro-2′-hydroxy-3′-(1-methyl-4-(3-methylpiperazin-1-yl)-1H-indol-6-yl)-[1,1′-biphenyl]-4-yl)-3-methyl-1H-imdazol-2(3H)-one], for which the pIC50 in experiment [1] (setting [3]) was 9.00 to 11.00. In addition, the GI50 in experiment [2] (setting [4]) fell in the range of 0.3 to 30 nM.

Consider `Cn1ccn(-c2ccc(-c3cc(F)cc(-c4ccccc4N4CCNCC4)c3O)cc2Cl)c1=O` [Example 870], for which the pIC50 in experiment [1] (setting [5]) is 8.00 to 9.00. In experiment [2] (setting [6]), this molecule displayed a GI50 of 300 to 3000 nM.

Regarding `C[C@@H]1CN(c2cc(-c3cc(F)cc(-c4ccc(-n5ccn(C)c5=O)c(Cl)c4)c3O)cc3[nH]ncc23)C[C@H](C)N1` [Example 577], the pIC50 in experiment [1] (setting [3]) was 9.00 to 11.00. Besides, in experiment [2] (setting [4]), the GI50 fell in the range of 0.3 to 30 nM.

Consider `O=c1sccn1-c1ccc(-c2cc(F)cc(-c3ccnc(N4CCNCC4)c3)c2O)cc1Cl` [Example 473, 3-(3-chloro-5′-fluoro-2′-hydroxy-3′-(2-(piperazin-1-yl)pyridin-4-yl)-[1,1′-biphenyl]-4-yl)thiazol-2(3H)-one], for which the pIC50 in experiment [1] (setting [3]) is 8.00 to 9.00. This molecule registered a GI50 in experiment [2] (setting [4]) of 0.3 to 30 nM.

For `Cn1ccn(-c2ccc(-c3cc(F)cc(-c4cc(N5CCNCC5)c5cn[nH]c5c4)c3O)cc2Cl)c1=O` [Example 526, 1-(3-chloro-5′-fluoro-2′-hydroxy-3′-(4-(piperazin-1-yl)-1H-indazol-6-yl)-[1,1′-biphenyl]-4-yl)-3-methyl-1H-imidazol-2(3H)-one], the negative logarithm of the IC50 (pIC50) in experiment [1] (setting [3]) is 8.00 to 9.00. This molecule also yielded a GI50 in experiment [2] (setting [4]) of 0.3 to 30 nM.

On to `Cc1cc(-c2cc(F)cc(-c3ccnc(N4CCNCC4)c3)c2O)cc(Cl)c1N1CCN(C)C1=O` [Example 385, 1-(3-chloro-5′-fluoro-2′-hydroxy-5-methyl-3′-(2-(piperazin-1-yl)pyridin-4-yl)-[1,1′-biphenyl]-4-yl)-3-methylimidazolidin-2-one], for which the negative-log IC50 (pIC50) in experiment [1] (setting [3]) was under 7.00. Also, the GI50 in experiment [2] (setting [4]) was 300 to 3000 nM.

With `CN[C@H]1CCN(c2cc(-c3cc(F)cc(-c4ccc(-n5ccn(C)c5=O)c(Cl)c4)c3O)cc3[nH]ncc23)C1` [Example 583], the pIC50 in experiment [1] (setting [3]) is 8.00 to 9.00. In experiment [2] (setting [4]), this molecule registered a GI50 of 0.3 to 30 nM.

With `O=C1OCCN1c1ccc(-c2cc(F)cc(-c3ccnc(N4CCNCC4)c3)c2O)cc1Cl` [Example 371, 3-(3-chloro-5′-fluoro-2′-hydroxy-3′-(2-(piperazin-1-yl)pyridin-4-yl)-[1,1′-biphenyl]-4-yl)oxazolidin-2-one], the pIC50 in experiment [1] (setting [3]) was 7.00 to 8.00. The molecule also returned a concentration for 50% growth inhibition (GI50) in experiment [2] (setting [4]) of 300 to 3000 nM.

On to `Cn1ccn(-c2ccc(-c3cc(F)cc(-c4ccnc(N5CCC(N)CC5)c4)c3O)cc2Cl)c1=O` [Example 414, 1-(3′-(2-(4-aminopiperidin-1-yl)pyridin-4-yl)-3-chloro-5′-fluoro-2′-hydroxy-[1,1′-biphenyl]-4-yl)-3-methyl-1H-imidazol-2(3H)-one], for which, in experiment [1] (setting [3]), the pIC50 was 9.00 to 11.00. The GI50 in experiment [2] (setting [4]) lay in the range of 30 to 300 nM.

For the molecule `Cc1ncc(-c2cc(F)cc(-c3ccc(-n4ccn(C)c4=O)c(Cl)c3)c2O)cc1N1CC(C)(C)[C@@](C)(O)C1` [Example 885], the pIC50 in experiment [1] (setting [5]) is 8.00 to 9.00. This molecule also returned a 50% growth inhibitory concentration (GI50) in experiment [2] (setting [6]) of 30 to 300 nM.

`[2H]C([2H])([2H])n1ccn(-c2ccc(-c3cc(F)cc(-c4cnc(OC)c(N5CCN(C(C)(C)C)CC5)c4)c3O)cc2Cl)c1=O` [Example 938, 1-(3′-(5-(4-(tert-butyl)piperazin-1-yl)-6-methoxypyridin-3-yl)-3-chloro-5′-fluoro-2′-hydroxy-[1,1′-biphenyl]-4-yl)-3-(methyl-d3)-1,3-dihydro-2H-imidazol-2-one]: the pIC50 in experiment [1] (setting [5]) is 8.00 to 9.00. This molecule yielded a GI50 in experiment [2] (setting [6]) of 0.3 to 30 nM.

Take `CC1=CCN(c2ccc(-c3cccc(-c4ccnc(N5CCNCC5)c4)c3O)cc2Cl)C1=O` [Example 356, 1-(3-chloro-2′-hydroxy-3′-(2-(piperazin-1-yl)pyridin-4-yl)-[1,1′-biphenyl]-4-yl)-3-methyl-1H-pyrrol-2(5H)-one]: the pIC50 in experiment [1] (setting [3]) was 8.00 to 9.00. Besides, the 50% growth inhibitory concentration (GI50) in experiment [2] (setting [4]) was 30 to 300 nM.

As for `C[C@@H]1CN(c2cncc(-c3cc(F)cc(-c4ccc(-n5ccn(C)c5=O)c(Cl)c4)c3O)c2)CCN1C` [Example 474, (R)-1-(3-chloro-3′-(5-(3,4-dimethylpiperazin-1-yl)pyridin-3-yl)-5′-fluoro-2′-hydroxy-[1,1′-biphenyl]-4-yl)-3-methyl-1H-imidazol-2(3H)-one], the negative-log IC50 (pIC50) in experiment [1] (setting [3]) is 9.00 to 11.00. The 50% growth inhibitory concentration (GI50) in experiment [2] (setting [4]) lay within 0.3 to 30 nM.

For the molecule `Cn1ccn(-c2ccc(-c3cc(F)cc(-c4cccc(N5CCN(C(C)(C)C)CC5)n4)c3O)cc2Cl)c1=O` [Example 950, 1-(3′-(6-(4-(tert-butyl)piperazin-1-yl)pyridin-2-yl)-3-chloro-5′-fluoro-2′-hydroxy-[1,1′-biphenyl]-4-yl)-3-methyl-1H-imidazol-2(3H)-one], in experiment [1] (setting [5]), the pIC50 was under 7.00. Further, in experiment [2] (setting [6]), the GI50 lay in the range of 300 to 3000 nM.
